Data as given in the supplement of paper PMC11451515.

Legend:
[1] = test system: P12-Ichikawa; test: AUC of viability dose-response curve (% viability x log10 dose units); higher = less sensitive; settings: 48 h
In short: (§1)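 Leukemia cells adapted to each medium were seeded in 1536-well plates (500 or 1000 cells/well) and given library compounds in DMSO for 48 h at 37°C. The 11 threefold doses spanned 47 μM to 0.79 nM, and CellTiter-Glo One luminescence was normalised per plate to DMSO and cell-free wells before four-parameter log-logistic fitting on log10 dose. Area under the curve was integrated with the trapezoidal rule, scaling curves above full viability and removing curves that failed quality control.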

[2] = test system: SEM cells; test: as above; settings: 48 h
In short: as §1

[3] = test system: NOMO1; test: as above; settings: 48 h
In short: as §1

[4] = test system: SEM cells; test: cell viability relative to DMSO control; higher = less cytotoxic; settings: RPMI 5 mM glucose + 10% dialyzed FBS, 48 h
In short: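 Leukemia cells (NOMO1 or SEM, 500 cells/well; P12-Ichikawa, 1000 cells/well) were seeded in 5 μl in 1536-well plates after at least four passages of adaptation to each medium. They received library compounds in DMSO by pin dosing, 11 threefold points from 47 μM to 0.79 nM. Luminescence with CellTiter-Glo One was read after 48 h at 37°C. Viability is stated per plate relative to DMSO wells, with cell-free wells as background.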

[5] = RPMI 5 mM glucose + 10% dialyzed FBS

SMILES	AUC of viability dose-response curve ([1]; HPLM + 10% dialyzed FBS)	AUC of viability dose-response curve ([1]; RPMI 5 mM glucose + 10% FBS)	AUC of viability dose-response curve [1, 5]	AUC of viability dose-response curve ([2]; HPLM + 10% dialyzed FBS)	AUC of viability dose-response curve ([2]; RPMI 5 mM glucose + 10% FBS)	AUC of viability dose-response curve [2, 5]	AUC of viability dose-response curve ([3]; HPLM + 10% dialyzed FBS)	AUC of viability dose-response curve ([3]; RPMI 5 mM glucose + 10% FBS)	AUC of viability dose-response curve [3, 5]	cell viability ([4]; 0.000781 µM) [%]	cell viability ([4]; 0.00234 µM) [%]	cell viability ([4]; 0.00702 µM) [%]	cell viability ([4]; 0.0211 µM) [%]	cell viability ([4]; 0.0632 µM) [%]	cell viability ([4]; 0.19 µM) [%]	cell viability ([4]; 0.569 µM) [%]	cell viability ([4]; 1.71 µM) [%]	cell viability ([4]; 5.12 µM) [%]	cell viability ([4]; 15.4 µM) [%]	cell viability ([4]; 46.1 µM) [%]
C/C(O)=C(\C#N)C(=O)Nc1ccc(C(F)(F)F)cc1	454	455	432	437	430	431	457	470	436	–	–	–	–	–	–	–	–	–	–	–
COC1=CC=C(C=C1)C/2=C(OC3O[C@@H](C)[C@H](O)[C@@H](O)[C@H]3O)/C(=O)C4=C(O2)C(=C(OC5O[C@H](CO)[C@@H](O)[C@H](O)[C@H]5O)C=C4O)CC=C(C)C (some centres not stated)	456	459	469	439	420	435	445	457	462	127	123	117	118	126	129	124	114	115	80.7	14.7
Cc1oncc1C(=O)Nc1ccc(C(F)(F)F)cc1	461	454	459	471	468	465	458	461	422	–	–	–	–	–	–	–	–	–	–	–
CN1CCN2c3ccccc3Cc3ccccc3C2C1 (configuration not stated)	453	441	466	467	463	453	433	474	472	–	–	–	–	–	–	–	–	–	–	–
